Test results published in US12043602B2, “Fendiline derivatives” (The Board of Regents of the University of Texas System, priority 2019, dated 2024).
Read-outs that look alike come from different tables or passages of the source. Values belong to the molecule of their own block, whether it stands above or below them.

Tests used:
[1] = system: NCI-H23 (Mut) lung tumor cells; test: CyQUANT proliferation assay; type: cell-based; set-up: key to IC50 proliferation NCI-H23 (Mut): NE—Not efficacious
Protocol: (§1) Madine Darby Canine Kidney epithelial cells (MDCK) stably co-expressing mGFP-tagged full length oncogenic mutant K-Ras (GFP—K-RASG12V) or mGFP-LactC2 (peptide probe for phosphatidylserine) and mCherry-tagged to the amino acids 179-189 of H-RasC181S, C184S (mCherry-CAAX, localizes primarily to endomembranes) were grown in DMEM-high glucose/sodium pyruvate/10% FBS. The medium was supplemented with 1× Penicillin/Streptomycin for fluorescence microscopy assays, to avoid any microbial contamination from the test compounds added. KLE and Hec50 cells were maintained in DMEM-F-12 medium supplemented with 10% FBS. Hec-1A and Hec-1B cells were grown in McCoy's 5a medium supplemented with 10% FBS. ESS-1 cells were grown in RPMI 1640 medium supplemented with 20% FBS. MPanc96 cells were grown in DMEM supplemented with 10% FBS, MiaPaCa-2 cells in DMEM supplemented with 10% FBS and 2.5% horse serum and all other cell lines were grown in RPMI 1640 supplemented with 10% FBS. All cancer cell media were supplemented with ×Penicillin/Streptomycin. All cell lines were grown at 37° C. with 5% CO2.
(§2) Cells were seeded in 96-well plates. After 24 h, fresh growth medium supplemented with 0.1% vehicle (DMSO), or various concentrations of drugs was added and cells were grown for 72 h. Cell numbers were quantified using the CyQUANT® Cell Proliferation Assay Kit (Molecular Probes, Life Technologies), according to the manufacturer's protocol. Fluorescence measurement was used as a measure of live cell number.

[2] = system: NCI H1975 (WT) lung tumor cells; test: CyQUANT proliferation assay; type: cell-based; conditions: Table 11, lung
Protocol: as §1, §2

[3] = system: NCI H522 (WT) lung tumor cells; test: CyQUANT proliferation assay; type: cell-based; set-up: key to IC50 proliferation NCI H522 (WT): NE—Not efficacious
Protocol: as §1, §2

[4] = system: Ishikawa (WT) endometrial tumor cells; test: CyQUANT proliferation assay; type: cell-based; set-up: key to IC50 proliferation Ishikawa (WT): NE—Not efficacious
Protocol: as §1, §2

[5] = system: BxPC-3 (WT) pancreatic tumor cells; test: CyQUANT proliferation assay; type: cell-based; set-up: key to IC50 proliferation BxPC-3 (WT): NE—Not efficacious
Protocol: as §1, §2

[6] = system: MOH (Mut) pancreatic tumor cells; test: CyQUANT proliferation assay; type: cell-based; set-up: key to IC50 proliferation MOH (Mut): NE—Not efficacious
Protocol: as §1, §2

[7] = system: mutant KRAS expressing cancer cells; conditions: at 30 μM; background statement; cited from earlier work
[8] = system: NCI-H1299 (WT) lung tumor cells; test: CyQUANT proliferation assay; type: cell-based; conditions: Table 11, lung; read-out: IC50 (μM) NCI H1299 (WT)
Protocol: as §1, §2

[9] = system: SK-CO-1 (Mut) colon tumor cells; test: CyQUANT proliferation assay; type: cell-based; conditions: Table 11, colon; read-out: IC50 (μM) SK-CO-1 (Mut)
Protocol: as §1, §2

[10] = system: Hec1A (Mut) endometrial tumor cells; test: CyQUANT proliferation assay; type: cell-based; conditions: Table 11, endometrial; read-out: IC50 (μM) Hec1A (Mut)
Protocol: as §1, §2

[11] = system: CaCO-2 (WT) colon tumor cells; test: CyQUANT proliferation assay; type: cell-based; conditions: Table 11, colon; read-out: IC50 (μM) Caco-2 (WT)
Protocol: as §1, §2

[12] = system: Hec1B (Mut) endometrial tumor cells; test: CyQUANT proliferation assay; type: cell-based; conditions: Table 11, endometrial; read-out: IC50 (μM) Hec1B (Mut)
Protocol: as §1, §2

[13] = system: MDCK cells co-expressing GFP-K-RASG12V and mCherry-CAAX; test: Cytotoxicity in mislocalization screen (death of all cells in well); conditions: drug caused death of all cells in well at 30 μM
mGFP-K-RASG12V [14] = target: T1, mGFP-K-RASG12V (Homo sapiens (Human), UniProt P01116, G12V); conditions: versus compound 6; background statement; cited from earlier work
[15] = system: MiaPaCa-2 (Mut) pancreatic tumor cells; test: CyQUANT proliferation assay; type: cell-based; conditions: Table 11, pancreatic; read-out: IC50 (μM) MiaPaCa-2 (Mut)
Protocol: as §1, §2

mGFP-K-RASG12V [16] = target: T1, mGFP-K-RASG12V; test: K-Ras mislocalization assay (confocal microscopy, Manders coefficient); type: cell-based; set-up: key to Emax: Manders coefficient: fraction of mCherry-CAAX co-localizing with GFP-K-Ras; conditions: MDCK cells; for IC50: 48 h treatment, read-out: IC50 (μM), KRASG12V mislocalization; for Emax: maximal effect, Manders coefficient
Summary of the method: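 MDCK cells stably co-expressing mGFP-K-RASG12V and mCherry-CAAX (endomembrane marker) treated with compound or 0.1% DMSO for 48 h, fixed in 4% paraformaldehyde, imaged by confocal microscopy. Mislocalization quantified as the fraction of mCherry-CAAX co-localizing with mGFP-K-RASG12V (Manders coefficient) after 8-bit thresholding.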

[17] = system: MPanc96 (Mut) pancreatic tumor cells; test: CyQUANT proliferation assay; type: cell-based; conditions: Table 11, pancreatic; read-out: IC50 (μM) MPanc96 (Mut)
Protocol: as §1, §2

[18] = system: MDCK cells co-expressing GFP-K-RASG12V and mCherry-CAAX
[19] = system: HPAC (Mut) pancreatic tumor cells; test: CyQUANT proliferation assay; type: cell-based; set-up: key to IC50 proliferation HPAC (Mut): NE—Not efficacious; conditions: 72 h
Protocol: as §1, §2

[20] = system: SW1116 (Mut) colon tumor cells; test: CyQUANT proliferation assay; type: cell-based; set-up: key: NE—Not efficacious; conditions: 72 h
Protocol: as §1, §2

[21] = system: KLE (WT) endometrial tumor cells; test: CyQUANT proliferation assay; type: cell-based; set-up: key: NE—Not efficacious; conditions: 72 h
Protocol: as §1, §2

[22] = system: H1925 (WT) lung tumor cells; test: CyQUANT proliferation assay; type: cell-based; set-up: key: NE—Not efficacious; conditions: 72 h
Protocol: as §1, §2

NRAS = NRAS (Homo sapiens (Human), UniProt P01111); conditions: background statement; cited from earlier work
HRAS = HRAS (Homo sapiens (Human), UniProt P01112); conditions: background statement; cited from earlier work

SMILES: COc1ccc([C@@H](C)N(CC=C(c2ccccc2)c2ccccc2)CC=C(c2ccccc2)c2ccccc2)cc1 [Compound 7, reference compound]
IC50 ([1]; Table 11, lung, read-out: IC50 (μM) NCI H23 (Mut)): > 30 µM
IC50 [2]: > 30 µM
IC50 ([3]; Table 11, lung, read-out: IC50 (μM) NCI H522 (WT)): > 30 µM
IC50 ([4]; Table 11, endometrial, read-out: IC50 (μM) Ishikawa (WT)): > 30 µM
IC50 ([5]; Table 11, pancreatic, read-out: IC50 (μM) BxPC-3 (WT)): > 30 µM
IC50 ([6]; Table 11, pancreatic, read-out: IC50 (μM) MOH (Mut)): > 30 µM
capability to kill mutant KRAS expressing cancer cells [7]: no capability to kill
IC50 [8]: > 30 µM
IC50 [9]: > 30 µM
IC50 [10]: > 30 µM
IC50 [11]: > 30 µM
IC50 [12]: > 30 µM
Cytotoxic at 30 μM [13]: did not show any cytotoxic and No
fold increased potency (mGFP-K-RASG12V [14]): 10 fold
IC50 [15]: > 30 µM
IC50 (mGFP-K-RASG12V [16]): 0.5 µM
Emax (mGFP-K-RASG12V [16]; 48 h): 0.74 ± 0.03
IC50 [17]: > 30 µM

SMILES: COc1ccc([C@@H](C)N(CC=C(c2ccccc2)c2ccccc2)CCN2CC2)cc1 [NY0438, (R)-N-(2-(aziridin-1-yl)ethyl)-N-(1-(4-methoxyphenyl)ethyl)-3,3-diphenylprop-2-en-1-amine]
Cytotoxic at 30 μM [18]: No
IC50 (mGFP-K-RASG12V [16]): 5.1 µM
Emax (mGFP-K-RASG12V [16]; 48 h): 0.754

IC50 proliferation NCI-H23 (Mut) ([1]; 72 h): NE
IC50 proliferation HPAC (Mut) [19]: NE
IC50 proliferation Ishikawa (WT) ([4]; 72 h): NE
IC50 proliferation BxPC-3 (WT) ([5]; 72 h): NE
IC50 proliferation KLE (WT) [21]: NE
IC50 proliferation MOH (Mut) ([6]; 72 h): NE
EC50 (mGFP-K-RASG12V [16]; batch 4 compounds, 48 h, title calls it IC50, read-out: EC50): 0.945 µM
Emax (mGFP-K-RASG12V [16]; 48 h): 0.893
SMILES: CN1CCN(CCN(CC=C(c2ccccc2)c2ccccc2)[C@@H]2C[C@H]2c2ccccc2)CC1 [NY0590, (1R,2S)-N-(3,3-diphenylallyl)-N-(2-(4-methylpiperazin-1-yl)ethyl)-2-phenylcyclopropan-1-amine]
IC50 proliferation NCI H522 (WT) ([3]; 72 h): NE
Potency proliferation SW1116 (Mut) [20]: NE
Potency proliferation H1925 (WT) [22]: NE
Cytotoxic at 30 μM [13]: Yes

IC50 (mGFP-K-RASG12V [16]): 5.59 µM
Emax (mGFP-K-RASG12V [16]; 48 h): 0.811
SMILES: C[C@@H](NCCC(c1ccccc1)c1ccccc1)c1ccccc1 [AVA08, R-Fendiline, reference compound]
Cytotoxic at 30 μM [18]: Yes
effect on the PM localization of NRAS (NRAS): no effect
effect on the PM localization of HRAS (HRAS): no effect
